pIC50: −log10 of the molar value.
Molecular target: T1, factor IXa (Homo sapiens, UniProt P00740)
T1 construct: purchased Calbiochem (Merck KGaA) 233290
Experiment: Factor IXa enzyme assay (chromogenic substrate PEFA 3107)
Type: biochemical
Conditions: factor IXa 277 nM final, pH 7.4, 15 min preincubation at room temperature, read at 405 nm, duplicate determination
Method: The prepared substances from the examples were tested for inhibition of the enzymatic activity of FIXa using the substrate PEFA 3107 (Pentapharm/Loxo; via S. Black GmbH, Baumstrasse 41, 47198 Duisburg, Germany; Pr. No. 095-20) and factor IXa (Calbiochem, Merck KGaA markets Calbiochem in Germany, Life Science & Analytics, 64293 Darmstadt; Pr. No. 233290). In this method, 28 μl of test buffer (50 mM α,α,α-tris(hydroxymethyl)methylamine (TRIS), 100 mM NaCl, 5 mM CaCl2, 0.1% bovine serum albumin, pH 7.4) and 10 μl of factor IXa (277 nM final concentration in the test batch) were added to 2 μl of 10 mM dimethyl sulfoxide solution of the respective test substance, and the mixture was incubated for 15 minutes at room temperature in a 96 half-well microtiter plate. The enzyme reaction was started by addition of 10 μl of substrate (1 mM stock solution in water). The time course of the reaction was monitored at 405 nm in a microtiter plate reader (SpectraMax plus 384; Molecular Devices) for 15 minutes.
The IC50 was calculated from the averaged values (duplicate determination) of a dilution series of the test substance with the aid of the software Grafit 4 (Erithacus Software, UK). The inhibition constants (Ki) were calculated according to the Cheng Prusoff equation Ki=IC50/(1+(S/Km), where S=concentration of the test substrate in the test and Km=Michaelis-Menten constant.

T1 sequence (P00740 227-461 limits assumed): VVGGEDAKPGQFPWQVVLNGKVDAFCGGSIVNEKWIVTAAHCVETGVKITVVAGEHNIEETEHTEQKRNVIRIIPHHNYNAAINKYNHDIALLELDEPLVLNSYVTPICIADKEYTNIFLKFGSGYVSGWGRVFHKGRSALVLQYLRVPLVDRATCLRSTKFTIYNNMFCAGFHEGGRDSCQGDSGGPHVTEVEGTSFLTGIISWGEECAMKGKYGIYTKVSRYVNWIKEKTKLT
T1 sequence (P00740 47-191 partner limits assumed): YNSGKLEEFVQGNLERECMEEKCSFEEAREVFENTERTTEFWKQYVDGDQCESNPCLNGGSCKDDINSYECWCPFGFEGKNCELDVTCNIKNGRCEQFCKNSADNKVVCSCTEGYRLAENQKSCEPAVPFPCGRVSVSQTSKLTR

Row | Structure (SMILES) | pIC50
1 | Nc1nc2ccc(NC(=O)C(O)C(NC(=O)c3ccc(-c4cccs4)s3)c3ccccc3)cc2[nH]1 (stereo not drawn) [Example 81, [2,2′]Bithiophenyl-5-carboxylic acid [2-(2-amino-3H-benzimidazol-5-ylcarbamoyl)-2-hydroxy-1-phenylethyl]amide] | 6.24
2 | Nc1nc2ccc(NC(=O)C(O)C(NC(=O)c3ccc(N4CCOCC4)cc3)c3ccccc3)cc2[nH]1 (stereo not drawn) [Example 53, N-[2-(2-Amino-3H-benzimidazol-5-ylcarbamoyl)-2-hydroxy-1-phenylethyl]-4-morpholin-4-yl-benzamide] | 5.87
3 | COc1cc(OC)cc(C(NC(=O)c2ccc(C(C)C)cc2)C(O)C(=O)Nc2ccc3nc(N)[nH]c3c2)c1 (stereo not drawn) [Example 134, N-[2-(2-Amino-3H-benzimidazol-5-ylcarbamoyl)-1-(3,5-dimethoxyphenyl)-2-hydroxyethyl]-4-iso-propylbenzamide] | 6.77
4 | CCc1ccc(C(=O)NC(c2ccccc2)C(O)C(=O)Nc2ccc3nc(N)[nH]c3c2)s1 (stereo not drawn) [Example 68, 5-Ethylthiophene-2-carboxylic acid [2-(2-amino-3H-benzimidazol-5-ylcarbamoyl)-2-hydroxy-1-phenylethyl]amide] | 6.14
5 | CCc1ccc(C(=O)NC(c2ccccc2)C(O)C(=O)Nc2ccc3c(N)nccc3c2)cc1 (stereo not drawn) [Example 87, N-[2-(1-Aminoisoquinolin-6-ylcarbamoyl)-2-hydroxy-1-phenylethyl]-4-ethylbenzamide] | 6.85
6 | CC(C)c1ccc(C(=O)NC(c2ccccc2)C(O)C(=O)Nc2ccc3nc(N)[nH]c3c2)cc1 (stereo not drawn) [Example 17, N-[2-(2-Amino-3H-benzimidazol-5-ylcarbamoyl)-2-hydroxy-1-phenylethyl]-4-isopropylbenzamide] | 6.55

Reference: patent US8097758B2, “Isoserine derivatives for use as coagulation factor IXa inhibitors” (Sanofi-Aventis, priority 2006, dated 2012)
